Reference: patent US12509467B2 (Hoffmann-La Roche Inc., priority 2020, dated 2025)

target: T1, human cGAS (residues 161-522) (Homo sapiens, UniProt Q8N884); assay: cGAS Activity Assay—Malachite Green; type: biochemical; details: not given
T1 construct: Recombinantly expressed purified human cGAS (residues 161-522) was used at 25 nM; made in house
Method: Compounds were tested for cGAS inhibition in a coupled enzymatic assay based on Phosphate detection by Malachite Green. Final assay conditions were 20 mM TRIS pH 7.5 (Applichem), 5 mM MgCl2 (Sigma) and 0.01% BSA (Sigma) supplemented with 80 μM ATP (Sigma), 80 μM GTP (Sigma) and 100 nM Interferon Stimulating DNA (ISD) (Microsynth).
1 μL of DMSO dilution series was transferred to 32.3 μL reaction buffer, mixed by pipetting up/down, spun for 1 minute at 3000 rpm and was visually inspected for precipitation. 5 μL of 3-fold enzyme stock solution were transferred to an empty 384-well Black/Clear Flat Bottom Polystyrene NBS (Corning) rows 3-24. Rows 1-2 were filled with assay buffer. Plates were spun 10 seconds at 1000 rpm (164×g). 5 μL of compound intermediate dilution was added and mixed by pipetting up/down to rows 3-24. Rows 1-2 were filled with 3.1% DMSO assay buffer. Plates were spun 10 seconds at 1000 rpm (164×g). 5 μL 3-fold Nucleotide/DNA mix was added to all wells to start the reaction. Plates were spun 10 seconds at 1000 rpm (164×g) and incubated for 4 hour at room temperature (RT) in the dark. 5 μL 4 U/mL PPase (Sigma) were added to all wells. Plates spun 10 seconds at 1000 rpm (164×g). 10 μL BioMol green Solution (Enzo Life Sciences) was added to all wells. Plates spun 10 seconds at 1000 rpm (164×g) and incubated 30 minutes at RT in the dark. Absorbance data was collected 620 nm on an EnVision Multilable Reader (Perkin Elmer) and the following measurement settings were used: excitation filter photometric was 620 nm; excitation from the top; measurement height was 1 mm; number of flashes was 30; number of flashes integrated was 1.
All plates are checked for abnormalities and outliers in the Blank Control (no protein, row 1) and the Neutral Control (no compound, row 2) are excluded using the 3*SD rule.
Table 5 provides IC50 values (μM) for cGAS inhibition obtained for particular examples of the present invention as measured by the above-described assay.

T1 sequence (Q8N884 161-522): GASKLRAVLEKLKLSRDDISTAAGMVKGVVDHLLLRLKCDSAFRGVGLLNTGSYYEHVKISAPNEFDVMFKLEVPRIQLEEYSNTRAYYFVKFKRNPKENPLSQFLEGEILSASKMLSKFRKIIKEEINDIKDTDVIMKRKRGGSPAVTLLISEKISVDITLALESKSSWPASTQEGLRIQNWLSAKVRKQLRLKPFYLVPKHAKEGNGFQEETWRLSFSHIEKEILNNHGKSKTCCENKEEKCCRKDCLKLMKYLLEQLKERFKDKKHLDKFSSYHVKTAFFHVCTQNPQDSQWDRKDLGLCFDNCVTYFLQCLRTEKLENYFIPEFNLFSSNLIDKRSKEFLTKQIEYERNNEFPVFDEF

| SMILES | IC50 |
| --- | --- |
| CCCc1cc(=O)n2nc(NCc3ccc(OCC)cc3Cl)nc2[nH]1 [Example 11] | 1.34 µM |
| CCCc1cc(=O)n2nc(NCc3ccc(OCC(F)(F)F)cc3)nc2[nH]1 [Example 8, 5-propyl-2-[[4-(2,2,2-trifluoro-ethoxy)phenyl]methyllamino]-4H-[1,2,4]triazolo[1,5-a]-pyrimidin-7-one] | 7.78 µM |
| O=c1cc(CCCC(F)F)[nH]c2nc(NCc3ccc(Cl)cc3Cl)nn12 [Example 52, 2-[(2,4-dichlorophenyl)methyl-amino]-5-(4,4-difluorobutyl)-4H-[1,2,4]triazolo[1,5-a]-pyrimidin-7-one] | 3.28 µM |

More lines, now with the values ahead:

| IC50 | SMILES |
| --- | --- |
| 1.32 µM | CCCCc1cc(=O)n2nc(NCc3ccc(Cl)cc3Cl)nc2[nH]1 [Example 35, 5-butyl-2-[(2,4-dichlorophen-yl)methylamino]-4H-[1,2,4]-triazolo-[1,5-a]pyrimidin-7-one] |
| 8.41 µM | CC(Nc1nc2[nH]c(C(F)(F)F)cc(=O)n2n1)c1ccc(Cl)cc1Cl (centres unmarked) [Example 77, 2-[1-(2,4-dichlorophenyl)ethyl-amino]-5-(trifluoromethyl)-4H-[1,2,4]triazolo[1,5-a]pyrimidin-7-one] |
| 1.24 µM | CCCc1cc(=O)n2nc(NCc3cc(-c4ccn(C)n4)ccc3C)nc2[nH]1 [Example 83, 2-[[2-methyl-5-(1-methyl-pyrazol-3-yl)phenyl]methyl-amino]-5-propyl-4H-[1,2,4]-triazolo[1,5-a]pyrimidin-7-one] |
| 0.533 µM | CCCc1cc(=O)n2nc(NCc3cc(-c4ccn(C)n4)ccc3Cl)nc2[nH]1 [Example 57, 2-[[2-chloro-5-(1-methylpyrazol-3-yl)phenyl]methylamino]-5-propyl-4H-[1,2,4]triazolo[1,5-a]pyrimidin-7-one] |
| 7.79 µM | O=c1nc(CCc2ccccc2)[nH]c2nc(NCc3ccc(Cl)cc3Cl)nn12 [Example 101, 2-[(2,4-Dichlorophenyl)methylamino]-5-(2-phenylethyl)-4H-[1,2,4]triazolo[1,5-a][1,3,5]-triazin-7-one] |

same assay, conditions: cGAS inhibition; 25 nM cGAS, 80 μM ATP, 80 μM GTP, 100 nM ISD, 4 hour at RT, Malachite Green phosphate detection; read-out: IC50 cGAS

| SMILES | IC50 |
| --- | --- |
| CCCCc1cc(=O)n2nc(NCc3ccn(-c4ccccc4)n3)nc2[nH]1 [Example 47, 5-butyl-2-[(1-phenylpyrazol-3-yl)methylamino]-4H-[1,2,4]-triazolo[1,5-a]pyrimidin-7-one] | 2.01 µM |
| O=c1cc(CC2CCC2)[nH]c2nc(NCc3ccc(-c4ccccc4)cc3)nn12 [Example 3, 5-(cyclobutylmethyl)-2-[(4-phen-ylphenyl)methylamino]-4H-[1,2,4]triazolo[1,5-a]pyrimidin-7-one] | 1.57 µM |
| CCCc1cc(=O)n2nc(NCc3cc(NC(=O)c4ccon4)ncc3Cl)nc2[nH]1 [Example 90, N-[5-Chloro-4-[[(7-oxo-5-propyl-4H-[1,2,4]triazolo[1,5-a]pyrimidin-2-yl)amino]methyl]-2-pyridyl]isoxazole-3-carboxamide] | 0.807 µM |
| CCCc1cc(=O)n2nc(NCc3ccc(OC)cc3C)nc2[nH]1 [Example 70, 2-[(4-methoxy-2-methylphen-yl)methylamino]-5-propyl-4H-[1,2,4]triazolo[1,5-a]pyrimidin-7-one] | 3.64 µM |
| O=c1cc(C(F)(F)F)[nH]c2nc(NCc3ccc(Cl)cc3Cl)nn12 [Example 60, 2-[(2,4-dichlorophenyl)methyl-amino]-5-(trifluoromethyl)-4H-[1,2,4]triazolo[1,5-a]-pyrimidin-7-one] | 1.25 µM |
| CCCCc1cc(=O)n2nc(NCc3cc(-c4ccccc4)nn3C)nc2[nH]1 [Example 44, 5-butyl-2-[(2-methyl-5-phenyl-pyrazol-3-yl)methylamino]-4H-[1,2,4]triazolo[1,5-a]pyrimidin-7-one] | 6.57 µM |
| CCCc1cc(=O)n2nc(NCc3cc(-c4ccn(C)n4)ccc3C(F)(F)F)nc2[nH]1 [Example 81, 2-[[5-(1-Methylpyrazol-3-yl)-2-(trifluoromethyl)phenyl]methylamino]-5-propyl-4H-[1,2,4]-triazolo[1,5-a]pyrimidin-7-one] | 1.69 µM |
| CCCc1cc(=O)n2nc(NCc3cc(-c4ccncn4)ccc3Cl)nc2[nH]1 [Example 38, 2-[(2-chloro-5-pyrimidin-4-yl-phenyl)methylamino]-5-propyl-4H-[1,2,4]triazolo[1,5-a]-pyrimidin-7-one] | 0.277 µM |
| CCCc1cc(=O)n2nc(NCc3cc(N4CCN(C)CC4)ncc3Cl)nc2[nH]1 [Example 95, 2-[[5-chloro-2-(4-methyl-piperazin-1-yl)-4-pyridyl]-methylamino]-5-propyl-4H-[1,2,4]triazolo[1,5-a]pyrim-idin-7-one] | 6.67 µM |
| CCCc1cc(=O)n2nc(NCc3ccc(OC(C)C)cc3)nc2[nH]1 [Example 53, 2-[(4-propan-2-yloxyphenyl)-methylamino]-5-propyl-4H-[1,2,4]triazolo[1,5-a]pyrimidin-7-one] | 2.66 µM |

Second part, the compound after the results:

| IC50 | SMILES |
| --- | --- |
| 0.805 µM | CCCCc1cc(=O)n2nc(NCc3cc(-c4ccccc4)on3)nc2[nH]1 [Example 46, 5-butyl-2-[(5-phenylisoxazol-3-yl)methylamino]-4H-[1,2,4]-triazolo[1,5-a]pyrimidin-7-one-5-butyl-2-[(5-phenylisoxazol-3-yl)methylamino]-4H-[1,2,4]-triazolo[1,5-a]pyrimidin-7-one] |
| 2.13 µM | CCCc1cc(=O)n2nc(NCc3ccc(N4CCOCC4)cc3)nc2[nH]1 [Example 42, 2-[(4-morpholinophenyl)meth-amino]-5-propyl-4H-[1,2,4]-triazolo[1,5-a]pyrimidin-7-one] |
| 2.2 µM | CCCc1cc(=O)n2nc(NCc3ccc(OCC)cc3)nc2[nH]1 [Example 54, 2-[(4-ethoxyphenyl)methyl-amino]-5-propyl-4H-[1,2,4]-triazolo[1,5-a]pyrimidin-7-one] |
| 1.16 µM | CCCc1cc(=O)n2nc(NCc3cc(N4CCOCC4)ncc3Cl)nc2[nH]1 [Example 96, 2-[(5-Chloro-2-morpholino-4-pyridyl)methylamino]-5-propyl-4H-[1,2,4]triazolo[1,5-a]pyrimidin-7-one] |
| 0.744 µM | CCCc1cc(=O)n2nc(NCc3ccc(-c4ccccc4)cc3F)nc2[nH]1 [Example 1, 2-[(2-Fluoro-4-phenyl-phenyl)methylamino]-5-propyl-4H-[1,2,4]triazolo[1,5-a]pyrimidin-7-one] |
| 0.178 µM | Cn1ccc(-c2ccc(Cl)c(CNc3nc4[nH]c(Cc5ccccc5)cc(=O)n4n3)c2)n1 [Example 27] |
| 0.491 µM | COCCc1cc(=O)n2nc(NCc3cc(-c4ccn(C)n4)ccc3Cl)nc2[nH]1 [Example 51, 2-[[2-chloro-5-(1-methylpyrazol-3-yl)phenyl]methylamino]-5-(2-methoxyethyl)-4H-[1,2,4]-triazolo[1,5-a]pyrimidin-7-one] |
| 5.16 µM | CCc1cc(=O)n2nc(NCc3ccc(Cl)cc3Cl)nc2[nH]1 [Example 37, 2-[(2,4-dichlorophenyl)methyl-amino]-5-ethyl-4H-[1,2,4]-triazolo[1,5-a]pyrimidin-7-one] |
| 1.91 µM | CCCc1cc(=O)n2nc(NCc3cc(-c4ccn(C)n4)ccc3OC)nc2[nH]1 [Example 28, 2-[[2-methoxy-5-(1-methyl-pyrazol-3-yl)phenyl]methyl-amino]-5-propyl-4H-[1,2,4]-triazolo[1,5-a]pyrimidin-7-one] |
| 1.59 µM | O=c1cc(CC2CCC2)[nH]c2nc(NCc3ccc(Cl)cc3Cl)nn12 [Example 65] |
| 4.38 µM | CCCc1cc(=O)n2nc(NCc3ccc(-c4ncccn4)cc3)nc2[nH]1 [Example 2, 5-propyl-2-[(4-pyrimidin-2-yl-phenyl)methylamino]-4H-[1,2,4]-triazolo[1,5-a]pyrimidin-7-one;] |
